The values below come from US20210212946A1, “SOLID SELF-EMULSIFYING CANNABINOID COMPOSITIONS” (ICDPHARMA LTD., priority 2018, published 2021).

Series [1] in a line: Oral absorption of CBD in rats. In kind it is in vivo, Sprague drawly rats. To be noted: gavage to the stomach, 12 mg/kg, plasma CBD by LC-MS. On the procedure:
A tablet of composition of 5A was diluted with water of about 40° C. before administration to the rats to obtain CBD concentration of 12 mg/ml and to obtain the cannabinoid oil-in-water emulsion. The emulsion was administered in gavage to the stomach of Sprague drawly rats weighing 220 gr to 250 gr at 12 mg/kg. Blood sample was obtained at various time points after the oral administration and plasma separated. The CBD concentration in the plasma was tested by LC-MS and the area under the curve calculate. Group one was administered with 12 mg/kg of pure CBD dissolved in “solvent” propylene glycol:ethanol 1:1 solution. Group two received the test formulation.

The test system of series [2] is human lung tumors. The following applies: human lung tumors implanted into rats and mice; cited from earlier work.

As for `C=C(C)[C@@H]1CCC(C)=C[C@H]1c1c(O)cc(CCCCC)cc1O` [CBD, cannabidiol], in series [1] (Sprague-Dawley, rat, po), the peak level (Cmax) was 38 ng/mL. Besides, the “AUC (Area Under the Curve of CBD in rats' plasma)” value in series [1] was determined as 90 ± 12 ng/mL/h.
As for `CCCCCc1cc(O)c2c(c1)OC(C)(C)[C@@H]1CCC(C)=C[C@@H]21` [THC, tetrahydrocannabinol], in series [2], the “reduction in tumor mass and volume” value is given as no more than 50%; the “reduction of cancerous lesions in the lungs” value was “around 60%”.
